Several values for one entry are separate records, joined by “and”; a condition that tells them apart may be missing. Identical values can stand only once. Each block holds one compound with its values, some of them ahead of it.
Legend:
VEGFR-2 Protein Kinase = molecular target: T1, VEGFR-2 Protein Kinase (Homo sapiens, UniProt P35968); experiment: VEGFR-2 inhibitory activity (HTScan VEGF Receptor-2 Kinase Assay Kit, ELISA); assay type: biochemical; conditions: mean of three individual experiments
T1 construct: It includes active VEGFR-2 kinase; purchased HTScan VEGF Receptor-2 Kinase Assay Kit
Method: 2.2. VEGFR-2 Inhibitory activity
VEGFR-2 ELISA (Enzyme-Linked Immunosorbent Assay) kits (HTScan® VEGF Receptor-2 […]
phospho-tyrosine antibody) for detection of the phosphorylated form of the substrate peptide).
On a 96-well plate, a particular VEGFR-2 antibody was seeded and 100 μL of the normal solution or the tested compound tested was applied, incubated at room temperature for 2.5 h and washed. Then, 100 μL of the prepared biotin antibody was added, incubated for an additional 1 h at room temperature and washed. Following, 100 μL of streptavidin solution was added at room temperature, incubated for 45 minutes and then, 100 μL of TMB Substrate solution was applied and incubated at room temperature for 30 minutes. Finally, 50 μL stop solution was added and the absorption was measured at 450 nm instantly. The standard curve, the X -axis concentrations, and the Y-axis absorbance were drawn. […]

Bcl-xL = experiment: Western blot of Bcl-xL expression in HCT-116; assay type: cell-based, human; conditions: HCT-116, Western blot, normalised to β-actin
Description: It is well known that the anti-apoptotic proteins Bcl-2 and Bcl-xL are mainly overexpressed in various types of cancer, causing survival of cancer cells and/or drug resistance. Therefore, inhibition of these proteins expression leads to cancer cell death and has been used as a strategy for anticancer drug development. In this study, the impact of compounds 1 and 11 on Bcl-2 and Bcl-xL expression in HCT-116 and MCF-7 cancer cell lines was examined using Western blot analysis and all the data were normalised to β-actin (Figure 9).
2.5. Impact of compounds 1 and 11 on the level of anti-apoptotic markers (Bcl-2, and Bcl-xL).
Gel electrophoresis and immuno-blot analysis of proteins (Western Blot) method was used to examine the effect of compounds 1 and 11 on the level of anti-apoptotic markers (Bcl-2, and Bcl-xL). […]
The cells were then immediately frozen at −20 °C for 1 h for further lysis and collected by cell scraper and sonicated 2×10s. Total protein concentrations were determined colorimetrically using Bradford method before proceeding to the western blotting. […] Briefly, the membranes were incubated for 1 min with a mixture of equal volumes from ECL solution A and ECL solution B. The chemiluminescent signals were captured using a CCD camera-based imager (Chemi Doc imager, Biorad, USA), and the band intensities were then measured with β-actin as an internal reference protein. […]

HCT-116 cells = experiment: Cell cycle analysis by DNA flow cytometry, HCT-116; assay type: cell-based, human; conditions: HCT116, 24 h, compound at its IC50 (supplement: 10 μM); for %Pre-G1: control 4.52; for %G2-M: control 18.93; for %S: control 31.56; for %G0-G1: control 49.51
Method: It is clearly known that generally the cytotoxic agents exert their anti-proliferative effect via cell cycle arrest at a specific phase. In the present study, due to the excellent in-vitro anti-proliferative activity of conjugates 1 and 11 against both HCT-116 and MCF-7 cancer cell lines as well as their excellent VEGFR-2 inhibitory activities, cell cycle analysis have been carried out for both compounds. […]
2.3. Cell cycle analysis.
HCT-116 and MCF-7 cells were seeded at concentrations of 1 x 10^5 cells per well in a 6-well plate, and then incubated for 24 h. The cells were treated for 24 h with vehicles (0.1 percent DMSO) or 10 μM of compounds 1 or 11. Using ice-cold, 70 percent ethanol at 4 °C, cells were harvested and fixed for 12 h. Ethanol was removed, and the cells were washed by cold PBS.
Then, the cells were incubated in 0.5 mL of PBS containing 1 mg/mL Ranse for 30 min at 37 °C.
In the dark, the cells were stained with propidium iodide for 30 min. Flow cytometer was then used to detect contents of DNA [63]. […]

T1 sequence (P35968 20-1356): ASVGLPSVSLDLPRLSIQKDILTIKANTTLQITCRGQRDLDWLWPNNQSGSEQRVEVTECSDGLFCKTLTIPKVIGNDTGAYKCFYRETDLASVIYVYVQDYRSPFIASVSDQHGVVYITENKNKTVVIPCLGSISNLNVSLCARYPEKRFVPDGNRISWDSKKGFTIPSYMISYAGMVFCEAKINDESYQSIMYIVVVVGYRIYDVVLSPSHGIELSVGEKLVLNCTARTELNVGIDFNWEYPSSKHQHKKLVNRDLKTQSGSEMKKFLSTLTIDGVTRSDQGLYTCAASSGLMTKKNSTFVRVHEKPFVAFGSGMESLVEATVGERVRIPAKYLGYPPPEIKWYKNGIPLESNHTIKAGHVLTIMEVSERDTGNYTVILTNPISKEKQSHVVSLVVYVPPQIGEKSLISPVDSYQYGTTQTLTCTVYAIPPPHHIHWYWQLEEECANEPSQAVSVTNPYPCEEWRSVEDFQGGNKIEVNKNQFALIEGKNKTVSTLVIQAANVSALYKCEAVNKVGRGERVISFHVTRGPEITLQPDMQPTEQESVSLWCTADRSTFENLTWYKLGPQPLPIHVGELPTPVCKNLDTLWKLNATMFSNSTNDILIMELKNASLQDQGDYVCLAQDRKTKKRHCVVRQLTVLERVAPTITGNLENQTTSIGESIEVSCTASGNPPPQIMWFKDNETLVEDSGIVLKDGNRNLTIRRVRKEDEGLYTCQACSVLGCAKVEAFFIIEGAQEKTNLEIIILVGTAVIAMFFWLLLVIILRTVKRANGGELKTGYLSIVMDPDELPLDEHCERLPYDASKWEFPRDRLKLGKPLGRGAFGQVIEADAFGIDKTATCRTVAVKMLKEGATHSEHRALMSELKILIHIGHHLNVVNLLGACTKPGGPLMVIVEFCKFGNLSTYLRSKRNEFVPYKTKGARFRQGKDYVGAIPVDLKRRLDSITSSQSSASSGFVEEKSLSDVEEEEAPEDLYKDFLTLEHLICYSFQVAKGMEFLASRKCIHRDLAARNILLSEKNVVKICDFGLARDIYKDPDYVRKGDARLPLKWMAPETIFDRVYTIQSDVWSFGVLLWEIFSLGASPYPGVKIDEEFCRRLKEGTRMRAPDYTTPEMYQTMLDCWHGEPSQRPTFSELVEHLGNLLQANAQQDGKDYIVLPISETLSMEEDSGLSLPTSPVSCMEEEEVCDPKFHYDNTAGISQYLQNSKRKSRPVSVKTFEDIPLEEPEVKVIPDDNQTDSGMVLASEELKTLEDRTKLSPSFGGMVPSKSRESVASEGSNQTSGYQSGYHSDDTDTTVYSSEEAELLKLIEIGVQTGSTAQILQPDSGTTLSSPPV

IC50 (VEGFR-2 Protein Kinase): 270 nM and 268 nM
Compound: O=C(CSc1nc2ccccc2o1)Nc1ccc(C(=O)NC2CCCCC2)cc1 [Compound 1]
Bcl-xL expression (Bcl-xL): inhibited
%Pre-G1 (HCT-116 cells): 15.36%
%G2-M (HCT-116 cells): 24.41%
%S (HCT-116 cells): 33.25%
%G0-G1 (HCT-116 cells): 42.34%

IC50 (VEGFR-2 Protein Kinase): 360 nM and 361 nM
Compound: O=C(CSc1nc2cc(Cl)ccc2o1)Nc1ccc(C(=O)Nc2ccc(Cl)cc2)cc1 [Compound 11]
Bcl-xL expression (Bcl-xL): inhibited
%Pre-G1 (HCT-116 cells): 17.41%
%G2-M (HCT-116 cells): 28.44%
%S (HCT-116 cells): 26.19%
%G0-G1 (HCT-116 cells): 45.37%
